Results on 10 molecules are retold here after US7718768B2, “Biologically active peptide [sequence]” (CMS Peptides Patent Holding Company Limited, priority 2001, dated 2010).

The test system of one test is NK cell. As to the kind of experiment: NK cell activity in mice with ascitic fluid type liver cancer H22. The class given is in vivo, BALB/c mice. The method, then: Healthy BALB/c mice were randomized into peptide group, rmIFN-γ group, rhIL-2 group, and saline group, 15 mice per group, and prepared into H22 carrying mice model as described in section Method 3. After implantation of the cancer cells, the test substances were administered for 15 days, the mice were killed by cervical dislocation. The spleen was isolated aseptically and manually dispersed in cold D-Hank's solution using an injection needle. The dispersed cell suspension was further sieved through a 100-gauge 150 μm diameter stainless steel sieve. After centrifugation at 200 g for 10 minutes, the supernatant was discarded. The cell pellet was re-suspended in 10 volume of Tris-NH4Cl buffer and then kept standing still for 10 minutes at room temperature. The suspended cells were collected by centrifugation at 150 g for 10 minutes. The cells were washed 2-4 times with cold D-Hank's solution by re-suspending and collecting by centrifugation with condition as described above. The washed cells were then diluted to the desired cell densities by RPMI-1640 culture medium, containing 10% fetal bovine serum.
Mice spleen cells were prepared to 4×10^6/ml as described in section 4.1 above. Target cells YAC-1 were brought to log phase and adjusted to 1×10^5/ml. Using a 96 wells cell culture plate, 100 μl mouse spleen cells and 100 μl culture medium were added to the control well containing only the spleen cells; 100 μl target cells and 100 μl culture medium were added to the control well containing only target cells; 100 μl mouse spleen cells and 100 μl target cells were added to the NK activity assay well. Three parallel sets of the above were prepared per mouse. After that, the 96 wells cell culture plates were incubated for 4 hrs at 37° C., 5% CO2.
Samples were centrifuged at 150 g for 10 minutes to collect the cells. The supernatant was discarded and 50 μl/well MTT of 1 mg/ml was added. The reaction-mixture was then shaken for 2 minutes, and incubated at 37° C., 5% CO2 for 4 hours. The supernatant was discarded after centrifugation at 150 g for 10 minutes. 120 μl 40 mM HCl-2-propanol was added and shaken for 3 minutes. An ELISA reader was used to obtain OD570nm of each well referenced at 630 nm.
The NK cell activity index of each mouse was obtained by first deriving the average OD of the three parallel wells of each combination, then applying this average OD to the following formula: NK cell activity index=[1−(average OD of spleen and target cell well−average OD of spleen cell only well)÷(average OD of target cell only well)]×100% 5. The Effect of Peptides on the Survival of DBA/2 Mice with Transplanted L1210 Leukemia

Test [1] relates to ascitic fluid type liver cancer H22. Kind of test: survival of mice with transplanted ascitic fluid type liver cancer H22. Format: in vivo, BALB/c mice. The note with it: for Survival index: versus saline group. The method, then: (§1) Intraperitoneal injection, once per day. […] Treatment of all groups with testing substance lasted for 30 days or until the animal died unless otherwise specified.
Stock H22 cells were incubated in DMEM/F12 medium supplemented with 10% fetal bovine serum, 37° C./5% CO2 for 72 hrs, then washed 3-4 times with Hank's solution at room temperature. Adjust cell concentration to 1-2×10^9 per liter with Hank's solution. 0.2 ml of the cell suspension was implanted to the abdominal cavity of several BALB/c mice for 6-8 days. The mice were killed by cervical vertebra dislocation. Ascitic fluid of the mice was collected asceptically and the cell concentration adjusted to 1×10^6 per ml with Hank's solution. 0.2 ml of the cell suspension was implanted into the abdominal cavity of healthy mice to generate the H22 carrying mouse model for ascitic fluid type liver cancer. Administration of test substance started as described in section Method 1. Survival data of the mice was recorded. If the animal survived longer than the experiment, the survival days was recorded as the duration of the experiment. Mean survival day was obtained by the Kaplan-meier method in the Survival option of the SPSS software. The survival index was calculated according to the following formula: Survival index(mean survival days in treatment group−mean survival days of control group)÷mean survival days of control group×100% 4. The Effect of Peptides on the Cellular Immunity of BALB/c Mice with Transplanted Ascitic Fluid Type Liver Cancer H22 4.1 Preparation of Spleen Cell Suspension^[1,4]

Another test concerns S180 sarcoma cells. As to the kind of experiment: growth of transplanted S180 sarcoma. The class given is in vivo, BALB/c mice. As to conditions: for Tumor inhibition index: versus saline group. The protocol: as §1
Stock S180 sarcoma cells were incubated in DMEM/F12 medium supplemented with 10% fetal bovine serum, 37° C., 5% CO2 for 72 hrs, then washed 3-4 times with Hank's solution at room temperature. Adjust the cell concentration to 1-2×10^9 per liter with Hank's solution. […] The mice were killed by cervical vertebra dislocation. Vigorously growing and non-disrupted tumor masses were harvested and washed clean with sterile saline. The tissue was dispersed in saline to a homogenous cell suspension, in a ratio of 1 g tissue to 4 ml saline. The sarcoma bearing mice model was prepared with an injection of 0.2 ml cell suspension through the armpit. Administration of test substance treatment started as described in section Method 1.
After the phagocytosis index study, the mice were killed by cervical vertebra dislocation. The liver, spleen, and cancer tissue were dissected, blotted dry, and weighed.
2.2 The Tumor Growth Inhibition Index was Calculated According to the Following Formula: Tumor growth inhibition index=(mean tumor weight of control group−mean tumor weight of treatment group)÷mean tumor weight of control group 3.

The subject of a further test is L1210 leukemia. Kind of test: survival of mice with transplanted L1210 leukemia. The class given is in vivo, DBA/2 mice. The note with it: for Survival index: versus saline group. The protocol: as §1
Stock L1210 cells were incubated in DMEM/F12 medium supplemented with 10% fetal bovine serum, 37° C./5% CO2 for 72 hrs, then washed 3-4 times with Hank's solution, and adjusted to 1×10^5 cells per liter. 0.1 ml of the cell suspension was implanted into the abdominal cavity of several healthy DBA mice for 6-8 days. The mice were then killed by cervical vertebra dislocation and their ascitic fluid collected aseptically. The cell concentration of the collected ascitic fluid was adjusted to 1×10^5 per ml with Hank's solution. 0.1 ml of the cell suspension was implanted into each of the testing animal and the survival data of the animals recorded. Treatment started in the testing animals as described in section Method 1. Mean survival day was obtained by the Kaplan-meier method in the Survival option of the SPSS software. If the animal survived longer than the experiment, the survival days was entered as the duration of the experiment. The survival index was calculated according to the following formula: Survival index=(mean survival days of treatment group−mean survival days of control group)÷mean survival days of control group 6. The Effect of Peptides on the Humoral Immunity of C57BL/6 Mice Bearing Transplanted B16 Melanoma, and that on the Metastatic Potential of the Inoculated Melanoma Cells

Setting [2] is: 3 × 10^5 IU/kg i.p. once per day.

Marks after values point to notes of the source that are not given here. No end group written: not given here.

With FNFVPP [CMS003], the NK activity index with NK cell (500 μg/kg i.p. once per day) is listed as 37.9 ± 14.5*^^$ %.
KAVGHLDDLPGAL [CMS008]: in test [1] (5 μg/kg i.p. once per day), the Survival days was 50.7 ± 20.9*^& days and the Survival index came to 67.8%.
On to “Phe Glu Glu Glu (FEEE; listed as Sus scrofa) [CMS032]”, for which, in test [1] (0.5 μg/kg i.p. once per day), the Survival days is 42.8 ± 12.2*^^&$ days and the Survival index is given as 63.3%. Also, in the test on NK cell (5 μg/kg i.p. once per day), the NK activity index is given as 52.6 ± 12.5*^^$& %. For the same molecule, the NK activity index in the test on NK cell (50 μg/kg i.p. once per day) was 41.0 ± 18.7*^^$& %.
“Phe Val Asn Asp (FVND; listed as Sus scrofa) [CMS035]”: in the test on S180 sarcoma cells (5 μg/kg i.p. once per day), the Tumor weight turned out to be 0.71 ± 0.37 g and the Tumor inhibition index is recorded as 44.6%. In the test with L1210 leukemia (0.5 μg/kg i.p. once per day), the Survival days was 29.3 ± 15.4 days and the Survival index is 76.1%.
In the test with S180 sarcoma cells (0.5 μg/kg i.p. once per day), “Pro Glu Asn Phe (PENF; listed as Sus scrofa) [CMS034]” gave a Tumor weight of 0.83 ± 0.48 g and a Tumor inhibition index of 35.9%. The NK activity index with NK cell (50 μg/kg i.p. once per day) is 57.3 ± 17.9*^^$& %.
As to RVAPEEHPTL [CMS011], in test [1] (5 μg/kg i.p. once per day), the Survival days is reported as 36.4 ± 22.2*^& days and the Survival index is recorded as 60.2%.
For the molecule “Tyr Ser Leu (YSL; listed as Sus scrofa) [CMS024]”, the figures for the Survival days in test [1] (0.5 μg/kg i.p. once per day), in test [1] (5 μg/kg i.p. once per day) and in test [1] (50 μg/kg i.p. once per day) were 46.4 ± 14.8*^^&$ days, 40.6 ± 14.6*^&$ days and 36.3 ± 12.7*^&$ days, respectively. The Survival index was found to be 76.9% in test [1] (0.5 μg/kg i.p. once per day), 54.8% in test [1] (5 μg/kg i.p. once per day) and 38.4% in test [1] (50 μg/kg i.p. once per day). For the same molecule, in test [1] (0.5 μg/kg/day), the “postmortem examination of the long-surviving mice” value is “did not show sign of tumor establishment”. Also, the “share of mice surviving longer than 90 days” value in test [1] (0.5 μg/kg/day, n=6, two months after the experiment ended) is recorded as “more than 30%”. The figures for the NK activity index in the test with NK cell (0.5 μg/kg i.p. once per day), with NK cell (5 μg/kg i.p. once per day) and in the test on NK cell (50 μg/kg i.p. once per day) were 39.3 ± 18.7*^$ %, 34.9 ± 12.1*^^$ % and 43.6 ± 13.9*^^$& %, respectively.
Take VAPEEHPTLLTEAPLNPK [CMS010]: in the test with S180 sarcoma cells (500 μg/kg i.p. once per day), the Tumor weight is reported as 0.67 ± 0.35 g and the Tumor inhibition index amounted to 48.4%.
For VGMGQKDSY [CMS019], in the test on L1210 leukemia (0.5 μg/kg i.p. once per day), the Survival days came out at 21.1 ± 5.8 days and the Survival index worked out at 26.8%.

B1: IFN-γ: recombinant mouse interferon-γ, Beijing Biotech Inc.; positive control immunostimulant (protein, UniProt P01580 23-155, looked up)
Interferon gamma: HGTVIESLESLNNYFNSSGIDVEEKSLFLDIWRNWQKDGDMKILQSQIISFYLRLFEVLKDNQAISNNISVIESHLITTFFSNSKAKKDAFMSIAKFEVNNPQVQRQAFNELIRVVHQLLPESSLRKRKRSRC
In test [1] (setting [2]), B1 returned a Survival days of 27.8 ± 7.5 days and a Survival index of 6.1%. Also, in the test with S180 sarcoma cells (setting [2]), the Tumor weight is on record as 0.96 ± 0.45 g and the Tumor inhibition index stood at 25.3%. In the test on NK cell (setting [2]), the NK activity index was found to be 20.9 ± 3.3%. In the test on L1210 leukemia (setting [2]), this molecule registered a Survival days of 15.6 ± 2.2 days.
